Holding throughout (format): biochemical
The target of experiment [1] is T1, SIRT1 (Homo sapiens, UniProt Q96EB6).
T1 construct: For assay experiments, strep-tagged human SIRT1134−747 and SIRT256-356 were expressed and purified as previously; Strep-tag; made in house; host or cells: E. coli BL21 Star (DE3)
T1 sequence (Q96EB6 134-747 limits assumed): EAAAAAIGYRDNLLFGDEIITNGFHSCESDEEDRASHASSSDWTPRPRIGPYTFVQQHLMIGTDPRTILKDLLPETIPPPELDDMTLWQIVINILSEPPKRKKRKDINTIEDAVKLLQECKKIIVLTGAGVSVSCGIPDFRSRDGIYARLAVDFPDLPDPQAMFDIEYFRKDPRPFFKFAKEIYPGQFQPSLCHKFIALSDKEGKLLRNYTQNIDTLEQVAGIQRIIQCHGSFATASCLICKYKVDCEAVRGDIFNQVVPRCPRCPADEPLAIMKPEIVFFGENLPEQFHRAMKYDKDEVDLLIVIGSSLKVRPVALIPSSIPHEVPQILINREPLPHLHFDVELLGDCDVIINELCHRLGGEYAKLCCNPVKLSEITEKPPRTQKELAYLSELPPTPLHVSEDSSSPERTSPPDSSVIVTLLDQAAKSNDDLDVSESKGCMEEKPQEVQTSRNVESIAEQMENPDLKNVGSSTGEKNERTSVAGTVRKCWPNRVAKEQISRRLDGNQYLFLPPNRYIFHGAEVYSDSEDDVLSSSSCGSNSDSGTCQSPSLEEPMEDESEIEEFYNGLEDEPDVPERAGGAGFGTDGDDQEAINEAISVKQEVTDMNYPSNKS
Description: Fluorescence-based deacetylation assay (ZMAL-assay), SIRT1. Conditions: 37 °C, assay limit 0.10 µM. As for the experimental part:
(§1) Determination of IC50 values (SIRT1, SIRT2, SIRT3) via fluorescence-based deacetylation assay […]
(§2) The fluorescence-based deacetylation assay was conducted in a black 384-well microplate (OptiPlate-384 F, PerkinElmer) with a total volume of 30 µL per well and a final DMSO concentration of 2% (v/v) according to a […]
(§3) concentration of 100 nM) in assay buffer (50 mM Tris, 137 mM NaCl, 2.7 mM KCl, 1m MgCl2, 0.01% Tween, 0.05 mg/mL BSA, 0.2 mM TCEP, pH 8.0), 5 µL of substrate (ZMAL, final concentration of 10.5 µM), 5 µL of NAD+ (final concentration of 500 µM) and 10 µL of inhibitor solution (final concentration of 30 µM – 0.014 µM, serial 1:3 dilutions) was incubated at 37 °C and 300 rpm for 4 h. A solution of trypsin (final concentration of 0.5 mg/mL) and nicotinamide (final concentration of 4 mM) was added and incubated at 37 °C and 300 rpm for 30 min to stop the reaction. Samples with 2% (v/v) DMSO instead of inhibitor were prepared as a positive control, and samples with 2% (v/v) DMSO instead of SIRT enzyme were prepared as a negative control. Fluorescence intensity was measured with a microplate reader (λEx = 380-10 nm, λEm = 460 nm, BMG POLARstar Optima, BMG Labtech, Germany). IC50 values were then determined using a nonlinear regression fit with Origin Pro 2019 software. All experiments were performed at least in duplicates. […]

The target in experiment [2] is T2, SIRT3 (Homo sapiens, UniProt Q9NTG7).
T2 construct: Human SIRT3118-395 was expressed and purified as previously described.[5]; made in house
T2 sequence (Q9NTG7 118-395 limits assumed): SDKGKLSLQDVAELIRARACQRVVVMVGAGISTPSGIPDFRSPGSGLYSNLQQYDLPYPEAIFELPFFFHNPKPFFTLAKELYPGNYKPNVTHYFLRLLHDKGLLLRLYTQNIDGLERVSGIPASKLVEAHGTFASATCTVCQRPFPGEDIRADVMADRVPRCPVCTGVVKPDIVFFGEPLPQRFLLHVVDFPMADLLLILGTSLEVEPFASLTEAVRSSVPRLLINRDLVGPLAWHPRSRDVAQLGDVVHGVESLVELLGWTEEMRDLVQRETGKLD
In words: Fluorescence-based deacetylation assay (ZMAL-assay), SIRT3. Conditions: 37 °C, assay limit 0.10 µM. As for the experimental part:
as §1, §2, §3

The target in experiment [3] is T3, SIRT2 (Homo sapiens, UniProt Q8IXJ6).
T3 construct: For assay experiments, strep-tagged human SIRT1134−747 and SIRT256-356 were expressed and purified as previously; Strep-tag; made in house; host or cells: E. coli BL21 Star (DE3)
T3 sequence (Q8IXJ6 56-356 limits assumed): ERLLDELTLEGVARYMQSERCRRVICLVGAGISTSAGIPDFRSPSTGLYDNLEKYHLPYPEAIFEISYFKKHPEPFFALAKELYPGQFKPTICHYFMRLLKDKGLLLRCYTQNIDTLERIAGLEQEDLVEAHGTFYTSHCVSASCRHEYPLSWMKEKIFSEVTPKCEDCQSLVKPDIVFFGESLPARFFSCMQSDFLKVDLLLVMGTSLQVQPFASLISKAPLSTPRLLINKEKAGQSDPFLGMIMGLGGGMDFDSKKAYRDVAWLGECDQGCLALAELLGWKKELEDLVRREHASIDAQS
In words: Fluorescence-based demyristoylation assay (BSA-Assay). As for the experimental part:
Determination of IC50 values (SIRT2) via fluorescence-based demyristoylation assay (BSA-Assay) The fluorescence-based demyristoylation assay was conducted in a continuous manner in a black 384-well microplate (OptiPlate-384 F, PerkinElmer) with a total volume of 40 µL per well and a final DMSO concentration of 5% (v/v), following a published procedure.[9] A mixture of 14 µL SIRT2 (final concentration of 1 nM) in assay buffer (20 mM Tris, 150 mM NaCl, […], pH 7.8) freshly supplemented with 2 mg/mL of BSA, 14 µL of substrate (F4, KM = 33 ± 5 nM[9], final concentration of 40 nM) and 2 µL of inhibitor solution (final concentration of 100 µM – 0.002 µM, serial 1:2 or 1:4 dilutions) was incubated at 25 °C and 350 rpm for 5 min. Samples with 5% (v/v) DMSO instead of inhibitor were measured as a positive control, and samples with assay buffer and 5% (v/v) DMSO instead of SIRT2 were measured as a negative control. The reaction was started with the addition of 10 µL NAD+ (final concentration of 500 µM) and the product formation was immediately monitored by the change of the fluorescence intensity at 25 °C for 20 min. For NAD+ preincubation experiments, instead of the substrate, 10 µL of NAD+ (final concentration of 500 µM) was added to the solution and incubated at 25 °C and 350 rpm for 15 min. The reaction was started with the addition of 14 µL substrate (final concentration of 40 nM) and the product formation was immediately monitored by the change of the fluorescence intensity at 25 °C every 60 s for 20 min using a microplate reader (λEx = 485 nm, λEm = 530-10 nm, BMG POLARstar Optima, BMG Labtech, Germany).
The activity was normalized using the positive control as 100% and the negative control as 0%. The normalized activity (v/v0) was plotted as a function of the logarithm of the inhibitor concentration [I], and a nonlinear fit was performed according to the following equation to determine the IC50 value.[9] […]

Where [4] appears, read: BSA-Assay, 25 °C, read-out: SIRT2 (demyr.) IC50.

For orientation: IC50 means the concentration that inhibits the measured activity by half.

Where two headings read alike, the source gives them in different places.

On to `COCCn1cc(COc2cccc(Cc3cnc(NC(=O)CSc4nc(C)cc(C)n4)s3)c2)nn1` [Compound 1, reference compound], for which, in experiment [1], the “SIRT1 (deac.) IC50” value is “n.i”. Besides, the “SIRT3 (deac.) IC50” value in experiment [2] is recorded as “n.i”. In addition, in experiment [3] (setting [4]), the IC50 worked out at 660 ± 100 nM.
As to `Cc1cc(C)nc(SCC(=O)Nc2ncc(Cc3cccc(OCc4c[nH]nn4)c3)s2)n1` [Compound 7], in experiment [1], the “SIRT1 (deac.) IC50” value was “n.i”. In experiment [2], the “SIRT3 (deac.) IC50” value was “n.i”. Further, the IC50 in experiment [3] (setting [4]) was above 10000 nM.
Take `CCCCCCCCCCCCc1cn(CCCC[C@H](NC(=O)[C@H](CCCCN)NC(=O)[C@@H]2CCCN2C(=O)[C@H](CC(C)C)NC(=O)[C@H](C)NC(=O)[C@H](CCC(=O)O)NC(C)=O)C(=O)N[C@H](C(=O)NCC(=O)NCC(N)=O)[C@@H](C)O)nn1` [Compound 6]: the IC50 was below 100 nM in experiment [1] (read-out: SIRT1 (deac.) IC50); 130 ± 10 nM in experiment [2] (read-out: SIRT3 (deac.) IC50); 3.6 ± 0.6 nM in experiment [3] (15 min NAD+ preincubation, read-out: IC50, SIRT2 demyristoylation after NAD+ preincubation); 30 ± 10 nM in experiment [3] (setting [4]); 28 ± 6 nM in experiment [3] (fatty-acylated substrate, without NAD+ preincubation, read-out: IC50, SIRT2 demyristoylation).

These data come from paper PMC12723449, “From Pharmacophore to Warhead: NAD^+‐Targeting Triazoles as Mechanism‐Based Sirtuin Inhibitors” (Angewandte Chemie (International Ed. in English), 2025).
